# Results: ChEMBL document CHEMBL5360618, “PepScaf: Harnessing Machine Learning with In Vitro Selection toward De Novo Macrocyclic Peptides against IL-17C/IL-17RE Interaction” (J Med Chem, 2023)
# Positions of bridges follow the written chain, without caps; N, C: chain ends. Residues, ends and D or L forms follow the SMILES beside them.
# Target: T1, IL17-RE-IL-17C (Homo sapiens, UniProt Q8NFR9+Q9P0M4)
# T1 sequence (Q9P0M4 whole entry): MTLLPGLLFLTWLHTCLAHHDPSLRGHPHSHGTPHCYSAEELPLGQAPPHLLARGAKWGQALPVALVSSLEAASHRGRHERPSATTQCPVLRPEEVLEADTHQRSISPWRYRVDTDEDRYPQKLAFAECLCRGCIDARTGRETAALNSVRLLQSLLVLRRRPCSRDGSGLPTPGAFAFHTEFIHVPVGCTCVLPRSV
# T1 sequence (Q8NFR9 whole entry): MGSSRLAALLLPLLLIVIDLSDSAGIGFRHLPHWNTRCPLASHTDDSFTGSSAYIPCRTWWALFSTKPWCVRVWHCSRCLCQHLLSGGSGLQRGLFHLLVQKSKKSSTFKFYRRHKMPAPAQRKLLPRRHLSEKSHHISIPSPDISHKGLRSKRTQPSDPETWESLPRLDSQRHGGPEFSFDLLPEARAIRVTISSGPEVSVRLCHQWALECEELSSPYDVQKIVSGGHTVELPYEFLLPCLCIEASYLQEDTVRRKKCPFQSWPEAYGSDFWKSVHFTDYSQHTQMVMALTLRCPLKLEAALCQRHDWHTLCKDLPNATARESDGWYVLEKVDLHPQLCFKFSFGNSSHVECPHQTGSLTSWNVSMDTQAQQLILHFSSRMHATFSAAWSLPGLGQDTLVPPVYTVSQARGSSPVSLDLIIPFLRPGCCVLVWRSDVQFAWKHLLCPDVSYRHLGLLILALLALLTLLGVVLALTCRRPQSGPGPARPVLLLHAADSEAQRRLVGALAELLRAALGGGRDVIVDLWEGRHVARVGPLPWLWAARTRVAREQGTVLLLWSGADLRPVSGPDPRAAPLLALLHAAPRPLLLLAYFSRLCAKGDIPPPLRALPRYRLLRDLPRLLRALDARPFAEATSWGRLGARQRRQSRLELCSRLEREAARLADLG
# Experiment: Inhibition of IL-17C/IL-17RE interaction (unknown origin) incubated for 1.5 hrs by ELISA method
# Format: protein-complex assay
row,Structure (SMILES),IC50
1,CC[C@H](C)[C@@H]1NC(=O)[C@H](Cc2c[nH]cn2)NC(=O)[C@H](Cc2ccc(O)cc2)NC(=O)CSC[C@@H](C(=O)NCC(N)=O)NC(=O)CNC(=O)[C@H](CC(C)C)NC(=O)[C@H]([C@H](C)O)NC(=O)CNC(=O)[C@H](Cc2ccc(O)cc2)NC(=O)[C@H](CC(C)C)NC(=O)[C@H](CO)NC(=O)[C@H](Cc2ccc(O)cc2)NC(=O)[C@H](Cc2ccc(O)cc2)NC(=O)[C@H](Cc2ccc(O)cc2)NC1=O,2.9 nM
2,CC[C@H](C)[C@@H]1NC(=O)[C@H](CCCNC(=N)N)NC(=O)[C@H](Cc2ccc(O)cc2)NC(=O)[C@H](Cc2ccc(O)cc2)NC(=O)[C@H](Cc2c[nH]cn2)NC(=O)[C@H](Cc2c[nH]cn2)NC(=O)[C@H](Cc2ccc(O)cc2)NC(=O)CSC[C@@H](C(=O)NCC(N)=O)NC(=O)CNC(=O)[C@H](C)NC(=O)[C@H](CCC(=O)O)NC(=O)CNC(=O)[C@H](Cc2ccc(O)cc2)NC(=O)[C@H](CC(C)C)NC1=O ({CH2CO}-YHHYYRILYGEAGCG-NH2; thioether N-14),> 30000 nM
3,CC(C)C[C@@H]1NC(=O)[C@H](CC(C)C)NC(=O)[C@H](CO)NC(=O)[C@H](CCC(=O)O)NC(=O)[C@H](CC(C)C)NC(=O)[C@H](Cc2ccc(O)cc2)NC(=O)CSC[C@@H](C(=O)NCC(N)=O)NC(=O)[C@H](Cc2ccc(O)cc2)NC(=O)[C@H](Cc2ccc(O)cc2)NC(=O)[C@H](CC(N)=O)NC(=O)[C@H](CC(N)=O)NC(=O)[C@H](CO)NC(=O)CNC1=O ({CH2CO}-YLESLLGSNNYYCG-NH2; thioether N-13),> 30000 nM
4,CC[C@H](C)[C@@H]1NC(=O)[C@H](CCCNC(=N)N)NC(=O)[C@H](C)NC(=O)[C@H](Cc2ccc(O)cc2)NC(=O)[C@H](Cc2c[nH]cn2)NC(=O)[C@H](Cc2c[nH]cn2)NC(=O)[C@H](Cc2ccc(O)cc2)NC(=O)CSC[C@@H](C(=O)NCC(N)=O)NC(=O)CNC(=O)[C@H](CC(C)C)NC(=O)[C@H](CCC(=O)O)NC(=O)CNC(=O)[C@H](Cc2ccc(O)cc2)NC(=O)[C@H](CC(C)C)NC1=O ({CH2CO}-YHHYARILYGELGCG-NH2; thioether N-14),> 30000 nM
5,CC(C)C[C@@H]1NC(=O)[C@H](CCC(=O)O)NC(=O)CNC(=O)[C@H](Cc2ccc(O)cc2)NC(=O)[C@H](CC(C)C)NC(=O)[C@H]([C@@H](C)O)NC(=O)[C@H](CCCNC(=N)N)NC(=O)[C@H](Cc2ccc(O)cc2)NC(=O)[C@H](Cc2ccc(O)cc2)NC(=O)[C@H](Cc2c[nH]cn2)NC(=O)[C@H](Cc2c[nH]cn2)NC(=O)[C@H](Cc2ccc(O)cc2)NC(=O)CSC[C@@H](C(=O)NCC(N)=O)NC(=O)CNC1=O ({CH2CO}-YHHYYRTLYGELGCG-NH2; thioether N-14),288 nM
6,CC[C@H](C)[C@@H]1NC(=O)[C@H](Cc2c[nH]cn2)NC(=O)[C@H](Cc2ccc(O)cc2)NC(=O)CSC[C@@H](C(=O)NCC(N)=O)NC(=O)CNC(=O)[C@H](CC(C)C)NC(=O)[C@H](CO)NC(=O)CNC(=O)[C@H](Cc2ccc(O)cc2)NC(=O)[C@H](CC(C)C)NC(=O)[C@H](CO)NC(=O)[C@H](CO)NC(=O)[C@H](Cc2ccc(O)cc2)NC(=O)[C@H](Cc2ccc(O)cc2)NC1=O ({CH2CO}-YHIYYSSLYGSLGCG-NH2; thioether N-14),7 nM
7,CC[C@H](C)[C@@H]1NC(=O)[C@H](CCCNC(=N)N)NC(=O)[C@H](Cc2ccc(O)cc2)NC(=O)[C@H](Cc2ccc(O)cc2)NC(=O)[C@H](Cc2c[nH]cn2)NC(=O)[C@H](Cc2c[nH]cn2)NC(=O)[C@H](Cc2ccc(O)cc2)NC(=O)CSC[C@@H](C(=O)NCC(N)=O)NC(=O)CNC(=O)[C@H](CC(C)C)NC(=O)[C@H](CCC(=O)O)NC(=O)[C@H](CO)NC(=O)[C@H](Cc2ccc(O)cc2)NC(=O)[C@H](CC(C)C)NC1=O ({CH2CO}-YHHYYRILYSELGCG-NH2; thioether N-14),1340 nM

# Now from value to molecule:
row,IC50,Structure (SMILES)
1,> 30000 nM,CC[C@H](C)[C@@H]1NC(=O)[C@H](CC(C)C)NC(=O)[C@H](C)NC(=O)[C@H](CC(C)C)NC(=O)[C@H](Cc2c[nH]c3ccccc23)NC(=O)[C@H](CC(N)=O)NC(=O)[C@H](CC(=O)O)NC(=O)[C@H](Cc2ccccc2)NC(=O)[C@H](Cc2c[nH]cn2)NC(=O)[C@H](Cc2ccc(O)cc2)NC(=O)CSC[C@@H](C(=O)NCC(N)=O)NC(=O)[C@H](CC(C)C)NC1=O ({CH2CO}-YHFDNWLALILCG-NH2; thioether N-12)
2,4.4 nM,CC[C@H](C)[C@@H]1NC(=O)[C@H](Cc2c[nH]cn2)NC(=O)[C@H](Cc2ccc(O)cc2)NC(=O)CSC[C@@H](C(=O)NCC(N)=O)NC(=O)CNC(=O)[C@H](CC(C)C)NC(=O)[C@H](CC(N)=O)NC(=O)CNC(=O)[C@H](Cc2ccc(O)cc2)NC(=O)[C@H](CC(C)C)NC(=O)[C@H](CO)NC(=O)[C@H](C)NC(=O)[C@H](Cc2ccc(O)cc2)NC(=O)[C@H](Cc2ccc(O)cc2)NC1=O ({CH2CO}-YHIYYASLYGNLGCG-NH2; thioether N-14)
3,865 nM,CC[C@H](C)[C@@H]1NC(=O)[C@H](CCCNC(=N)N)NC(=O)[C@H](Cc2ccc(O)cc2)NC(=O)[C@H](Cc2ccc(O)cc2)NC(=O)[C@H](Cc2c[nH]cn2)NC(=O)[C@H](Cc2c[nH]cn2)NC(=O)[C@H](Cc2ccc(O)cc2)NC(=O)CSC[C@@H](C(=O)NCC(N)=O)NC(=O)[C@H](C)NC(=O)[C@H](CC(C)C)NC(=O)[C@H](CCC(=O)O)NC(=O)CNC(=O)[C@H](Cc2ccc(O)cc2)NC(=O)[C@H](CC(C)C)NC1=O ({CH2CO}-YHHYYRILYGELACG-NH2; thioether N-14)
4,180 nM,CC[C@H](C)[C@@H]1NC(=O)[C@H](CCCNC(=N)N)NC(=O)[C@H](Cc2ccc(O)cc2)NC(=O)[C@H](Cc2ccc(O)cc2)NC(=O)[C@H](Cc2c[nH]cn2)NC(=O)[C@H](Cc2c[nH]cn2)NC(=O)[C@H](Cc2ccc(O)cc2)NC(=O)CSC[C@@H](C(=O)NCC(N)=O)NC(=O)CNC(=O)[C@H](CC(C)C)NC(=O)[C@H](C)NC(=O)CNC(=O)[C@H](Cc2ccc(O)cc2)NC(=O)[C@H](CC(C)C)NC1=O ({CH2CO}-YHHYYRILYGALGCG-NH2; thioether N-14)
5,48.8 nM,CC(C)C[C@@H]1NC(=O)[C@H](CC(N)=O)NC(=O)CNC(=O)[C@H](Cc2ccc(O)cc2)NC(=O)[C@H](CC(C)C)NC(=O)[C@H](CC(C)C)NC(=O)[C@H](CCCNC(=N)N)NC(=O)[C@H](Cc2ccc(O)cc2)NC(=O)[C@H](Cc2ccc(O)cc2)NC(=O)[C@H](CC(C)C)NC(=O)[C@H](Cc2c[nH]cn2)NC(=O)[C@H](Cc2ccc(O)cc2)NC(=O)CSC[C@@H](C(=O)NCC(N)=O)NC(=O)CNC1=O ({CH2CO}-YHLYYRLLYGNLGCG-NH2; thioether N-14)
6,> 30000 nM,CC[C@H](C)[C@@H]1NC(=O)[C@H](CCCNC(=N)N)NC(=O)[C@H](Cc2c[nH]cn2)NC(=O)[C@H](Cc2ccc(O)cc2)NC(=O)[C@H](Cc2c[nH]cn2)NC(=O)[C@H](Cc2c[nH]cn2)NC(=O)[C@H](Cc2ccc(O)cc2)NC(=O)CSC[C@@H](C(=O)NCC(N)=O)NC(=O)CNC(=O)[C@H](CC(C)C)NC(=O)[C@H](CCC(=O)O)NC(=O)CNC(=O)[C@H](Cc2ccc(O)cc2)NC(=O)[C@H](CC(C)C)NC1=O ({CH2CO}-YHHYHRILYGELGCG-NH2; thioether N-14)
7,414 nM,CC(C)C[C@@H]1NC(=O)[C@H](CCC(=O)O)NC(=O)CNC(=O)[C@H](Cc2ccc(O)cc2)NC(=O)[C@H](CC(C)C)NC(=O)[C@H](C(C)C)NC(=O)[C@H](CCCNC(=N)N)NC(=O)[C@H](Cc2ccc(O)cc2)NC(=O)[C@H](Cc2ccc(O)cc2)NC(=O)[C@H](Cc2c[nH]cn2)NC(=O)[C@H](Cc2cnc[nH]2)NC(=O)[C@H](Cc2ccc(O)cc2)NC(=O)CSC[C@@H](C(=O)NCC(N)=O)NC(=O)CNC1=O ({CH2CO}-YHHYYRVLYGELGCG-NH2; thioether N-14)
8,> 30000 nM,CC[C@H](C)[C@@H]1NC(=O)[C@H](Cc2c[nH]c3ccccc23)NC(=O)[C@H](C)NC(=O)[C@H](CC(=O)O)NC(=O)[C@H](Cc2ccccc2)NC(=O)[C@H](Cc2c[nH]cn2)NC(=O)[C@H](Cc2ccc(O)cc2)NC(=O)CSC[C@@H](C(=O)NCC(N)=O)NC(=O)[C@H](CC(C)C)NC(=O)[C@H](CO)NC(=O)[C@H](CCCNC(=N)N)NC(=O)[C@H](C)NC1=O ({CH2CO}-YHFDAWIARSLCG-NH2; thioether N-12)
9,> 30000 nM,CC[C@H](C)[C@@H]1NC(=O)[C@H](CCCNC(=N)N)NC(=O)[C@H](Cc2ccc(O)cc2)NC(=O)[C@H](Cc2ccc(O)cc2)NC(=O)[C@H](Cc2c[nH]cn2)NC(=O)[C@H](Cc2c[nH]cn2)NC(=O)[C@H](Cc2ccc(O)cc2)NC(=O)CSC[C@@H](C(=O)NCC(N)=O)NC(=O)CNC(=O)[C@H](CC(C)C)NC(=O)[C@H](CCC(=O)O)NC(=O)CNC(=O)[C@H](Cc2c[nH]cn2)NC(=O)[C@H](CC(C)C)NC1=O ({CH2CO}-YHHYYRILHGELGCG-NH2; thioether N-14)
10,6.3 nM,CC[C@H](C)[C@@H]1NC(=O)[C@H](Cc2c[nH]cn2)NC(=O)[C@H](Cc2ccc(O)cc2)NC(=O)CSC[C@@H](C(=O)NCC(N)=O)NC(=O)CNC(=O)[C@H](CC(C)C)NC(=O)[C@H](CO)NC(=O)CNC(=O)[C@H](Cc2ccc(O)cc2)NC(=O)[C@H](CC(C)C)NC(=O)[C@H]([C@@H](C)CC)NC(=O)[C@H](CCCNC(=N)N)NC(=O)[C@H](Cc2ccc(O)cc2)NC(=O)[C@H](Cc2ccc(O)cc2)NC1=O ({CH2CO}-YHIYYRILYGSLGCG-NH2; thioether N-14)
